Assay results published in paper PMC9320114 (Molecules, 2022).
Where two headings read alike, the source gives them in different places.

What was measured:
[1] = biological target: MurA (Escherichia coli, UniProt P0A749); assay: Inhibition of MurA, colorimetric malachite green method; type: biochemical, bacterial; details: Table 1; for IC50: read-out: MurA IC50; for MurA RA (%): residual activity at 100 µM
Protocol: Inhibition of Mur enzymes was monitored with the colorimetric malachite green method, which measured orthophosphate formed during reaction. The mixtures with a final volume of 50 µL contained:
MurA: 50 mM HEPES-NaOH, pH 7.8, 0.005% Triton X-114, 200 µM uridine-diphosphate-N-acetylglucosamine, 100 µM phosphoenolpyruvate, purified MurA, and 50 or 100 µM of each compound tested.
All compounds were soluble in the assay mixtures containing 5% DMSO (v/v). After incubation for 15 min (20 min for DdlB) at 37 °C, the enzyme reaction was terminated by addition of Biomol® reagent (100 µL) and absorbance was measured after 5 min at 650 nm (Synergy™ H4 microplate reader; BioTek Instruments, Inc., BioTek Gen5 Data Analysis Software, version 2.9, Santa Clara, CA, USA). All experiments were performed in duplicate.

[2] = biological target: human butyrylcholinesterase (hBChE) (Homo sapiens, UniProt P06276); assay: biochemical; type: biochemical; details: for IC50: read-out: hBChE IC50; for remaining activity at 10 µM: read-out: hBChE RA (%)
Chain of human butyrylcholinesterase (hBChE) (P06276 29-602): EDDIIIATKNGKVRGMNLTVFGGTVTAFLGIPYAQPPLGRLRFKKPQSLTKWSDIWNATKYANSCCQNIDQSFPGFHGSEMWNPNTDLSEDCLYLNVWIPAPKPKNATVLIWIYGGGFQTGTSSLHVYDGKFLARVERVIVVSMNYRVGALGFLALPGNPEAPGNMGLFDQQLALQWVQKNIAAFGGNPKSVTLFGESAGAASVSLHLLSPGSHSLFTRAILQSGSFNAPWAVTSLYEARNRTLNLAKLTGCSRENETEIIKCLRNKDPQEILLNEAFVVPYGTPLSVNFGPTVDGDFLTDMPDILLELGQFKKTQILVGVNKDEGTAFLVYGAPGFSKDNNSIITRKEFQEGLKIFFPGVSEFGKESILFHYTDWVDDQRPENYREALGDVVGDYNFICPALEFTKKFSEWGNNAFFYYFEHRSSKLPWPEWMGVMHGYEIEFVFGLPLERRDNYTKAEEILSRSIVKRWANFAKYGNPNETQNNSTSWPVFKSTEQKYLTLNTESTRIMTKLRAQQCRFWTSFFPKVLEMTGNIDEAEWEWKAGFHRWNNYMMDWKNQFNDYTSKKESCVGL
Protocol: (§1) Enzyme solutions were prepared by diluting the concentrated enzyme stock solutions (4.6 mg/mL in 10 mM MES-NaOH buffer, pH 6.5) in a sodium phosphate-buffered solution (0.1 M, pH 8.0). […] The final organic solvent (DMSO) content was always 1% (v/v). Reactions were initiated by adding the substrate to the enzyme and inhibitor, which were preincubated for 5 min. […] To determine the blank value (b), the enzyme solution was replaced by a phosphate-buffered solution. The initial velocity (v) was calculated from the slope of the linear trend obtained, with each measurement performed in triplicate. The inhibitory potencies were expressed as RA=(vi − b)/(vo − b), where vi is the velocity in the presence of the test compounds and vo is the control velocity in the presence of DMSO. Seven different concentrations of each compound were used for the IC50 measurements. IC50 values were obtained by plotting the residual enzyme activities against the applied inhibitor concentrations, fitting the experimental data to the 4-parameter Hill equation:(1) Y=Bottom+(Top−Bottom)/1+10^((LogIC50−X)×Hill Slope) where X is the logarithm of the inhibitor concentration, and Y is the residual activity. GraphPad Prism 8.2.0 (GraphPad Software, San Diego, CA, USA) was used for the fitting procedure.

[3] = biological target: T1, murine acetylcholinesterase (mAChE) (Mus musculus, UniProt P21836); assay: biochemical; type: biochemical; details: for remaining activity at 10 µM: residual activity at 10 µM, read-out: mAChE RA (%)
T1 sequence (P21836 32-614): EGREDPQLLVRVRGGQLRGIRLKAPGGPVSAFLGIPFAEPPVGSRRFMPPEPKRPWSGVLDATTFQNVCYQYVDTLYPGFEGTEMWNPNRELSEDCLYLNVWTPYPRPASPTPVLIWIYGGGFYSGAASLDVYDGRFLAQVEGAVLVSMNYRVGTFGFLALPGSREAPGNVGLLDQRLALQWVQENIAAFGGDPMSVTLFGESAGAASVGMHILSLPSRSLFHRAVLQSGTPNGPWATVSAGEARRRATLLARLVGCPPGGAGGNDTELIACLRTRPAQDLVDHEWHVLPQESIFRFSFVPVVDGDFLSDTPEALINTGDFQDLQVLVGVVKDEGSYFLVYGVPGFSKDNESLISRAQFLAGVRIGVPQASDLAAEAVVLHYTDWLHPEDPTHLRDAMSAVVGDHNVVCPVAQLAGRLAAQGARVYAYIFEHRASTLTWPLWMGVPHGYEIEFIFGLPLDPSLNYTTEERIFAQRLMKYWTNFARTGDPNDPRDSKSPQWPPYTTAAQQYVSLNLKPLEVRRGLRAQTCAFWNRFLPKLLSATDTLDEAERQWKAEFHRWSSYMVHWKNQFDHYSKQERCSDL
Protocol: as §1

[4] = biological target: T2, hMAO-B (Homo sapiens, UniProt P27338); assay: biochemical; details: residual activity at 10 µM; Table 3
T2 construct: purchased Sigma Aldrich; host or cells: BTI-TN-5B1-4 baculovirus-infected insect cells
T2 sequence (P27338 1-520): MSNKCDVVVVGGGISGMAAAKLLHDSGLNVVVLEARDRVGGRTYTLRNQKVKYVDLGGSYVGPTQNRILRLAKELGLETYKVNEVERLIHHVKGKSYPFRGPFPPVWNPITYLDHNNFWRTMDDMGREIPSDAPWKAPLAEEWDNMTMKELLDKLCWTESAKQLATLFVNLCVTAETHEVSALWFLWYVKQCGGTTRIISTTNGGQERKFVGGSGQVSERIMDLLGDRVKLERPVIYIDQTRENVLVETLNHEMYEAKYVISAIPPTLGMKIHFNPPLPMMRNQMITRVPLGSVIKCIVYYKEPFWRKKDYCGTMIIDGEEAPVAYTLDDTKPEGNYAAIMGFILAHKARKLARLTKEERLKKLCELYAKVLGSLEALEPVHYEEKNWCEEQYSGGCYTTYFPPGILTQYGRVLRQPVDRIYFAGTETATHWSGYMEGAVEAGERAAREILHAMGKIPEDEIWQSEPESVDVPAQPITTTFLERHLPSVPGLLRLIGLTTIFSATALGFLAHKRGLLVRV
From the text: The effects of the compounds on hMAO-A and hMAO-B were investigated using a fluorimetric assay, following a method previously described in the literature. Recombinant human microsomal hMAO enzymes expressed in BTI-TN-5B1-4 baculovirus-infected insect cells, horseradish peroxidase (HRP, type II, lyophilized powder), and p-tyramine hydrochloride were purchased from Sigma Aldrich. 10-Acetyl-3,7-dihydroxyphenoxazine (Amplex Red reagent) was synthesized as described in the literature.
After preincubation, the reaction was started by adding final concentrations of 200 µM Amplex Red reagent, 2 U/mL HRP, and 1 mM p-tyramine hydrochloride. Resorufin production was quantified based on the fluorescence produced (λex = 530 nm; λem = 590 nm) at 37 °C over a 20 min period. For the control experiments, DMSO was used instead of appropriate dilutions of the compounds in DMSO. For the determination of blank (b), the enzyme solution was replaced by a phosphate-buffered solution. Initial velocities were calculated from the obtained trend, with each measurement performed in duplicate. Specific fluorescence emission to determine the final results was calculated after subtracting the blank activity (b). Inhibitory potencies were expressed as RAs, and IC50 values were calculated as described in the section “Inhibition of hBChE and mAChE” above.

[5] = residual activity at 10 µM, Table 4

Chain of MurA (P0A749 whole entry): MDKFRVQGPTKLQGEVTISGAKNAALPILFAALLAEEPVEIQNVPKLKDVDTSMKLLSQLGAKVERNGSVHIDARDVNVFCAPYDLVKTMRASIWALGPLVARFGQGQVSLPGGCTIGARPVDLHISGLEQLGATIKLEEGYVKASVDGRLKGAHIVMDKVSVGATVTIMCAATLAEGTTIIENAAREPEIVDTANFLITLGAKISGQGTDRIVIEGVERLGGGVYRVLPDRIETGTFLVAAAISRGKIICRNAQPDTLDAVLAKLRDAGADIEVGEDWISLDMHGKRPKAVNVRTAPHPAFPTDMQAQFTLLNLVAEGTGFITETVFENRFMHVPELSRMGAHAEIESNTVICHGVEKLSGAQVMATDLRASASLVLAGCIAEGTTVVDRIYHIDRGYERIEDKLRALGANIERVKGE

Structure (SMILES) | MurA RA (%) [1] [%] | hBChE RA (%) [2] [%] | mAChE RA (%) [3] [%] | remaining activity at 10 µM [2, 5] [%] | remaining activity at 10 µM ([3]; Table 4) [%] | IC50 ([2]; Table 4, IC50 ± SEM) [nM] | also measured
C[C@@H]1O[C@@H]1P(=O)(O)O [Fosfomycin, reference compound] | 0 |  |  |  |  |  | IC50 ([1]; IC50 ± SEM): 240 ± 20 nM
CCCCCCN(Cc1ccc(C#Cc2ccc(CCCC)cc2)cc1)c1ccc(F)c(C(=O)OC)c1 [Compound 7] | 100 | 45 | 19 |  |  |  | IC50 [2]: ~19700 nM; IC50 [3]: 682 ± 86 nM
CC(C)(C)CCN(Cc1ccc(C#Cc2ccc(F)cc2)cc1)C(=O)c1ccc(O)c(C(=O)O)c1 [Compound 6] | 0 | 95 | 13 |  |  |  | IC50 [3]: 4800 ± 1300 nM; IC50 ([1]; IC50 ± SEM): 27000 ± 7000 nM
O=C(O)c1ccc2[nH]cc(CCCCN3CCc4c(c(=O)oc5ccccc45)C3)c2c1 [Compound 36] |  |  |  | 97 | 78 |  | 
Fc1ccc2[nH]cc(CCCCN3CC=C(c4ccccc4)CC3)c2c1 [Compound 39] |  |  |  | 0 | 47 | 70 ± 5 | IC50 ([3]; Table 4, IC50 ± SEM): 15000 ± 5000 nM
OCC1=C(c2ccc(F)cc2)CCN(CCCCc2c[nH]c3ccccc23)C1 [Compound 34] |  |  |  | 7 | 31 | 493 ± 88 | IC50 ([3]; Table 4, IC50 ± SEM): 7000 ± 1000 nM
COC(=O)c1cc(N(Cc2ccc(C#Cc3ccc(C(C)(C)C)cc3)cc2)CC2CC2)ccc1F [Compound 9] | 10 | 80 |  |  |  |  | IC50 [3]: 1800 ± 450 nM; IC50 ([1]; IC50 ± SEM): 91000 ± 13000 nM
C1=C(c2cccc3ccccc23)CCN(CCCCc2c[nH]c3ccccc23)C1 [Compound 30] |  |  |  | 6 | 76 | 400 ± 57 | 
CC(C)(C)c1ccc(C#Cc2ccc(CN(CC3CC3)c3ccc(O)c(C(=O)O)c3)cc2)cc1 [Compound 2] | 64 | 100 | 99 |  |  |  | 
COc1ccc2[nH]cc(CCCCN3CCc4c([nH]c5ccc(OC)cc45)C3)c2c1 [Compound 37] |  |  |  | 23 | 88 | 2300 ± 100 | 
CCCCCCN(Cc1ccc(C#Cc2ccc(C(C)(C)C)cc2)cc1)c1ccc(F)c(C(=O)O)c1 [Compound 8] | 0 | 71 | 22 |  |  |  | IC50 [3]: 368 ± 52 nM; IC50 ([1]; IC50 ± SEM): 14000 ± 5000 nM
COC(=O)CNC(=O)c1ccc2[nH]cc(CCCCN3CC=C(c4ccccc4)CC3)c2c1 [Compound 38] |  |  |  | 4 | 100 | 319 ± 51 | 
CC(C)c1ccc2[nH]cc(CCCCN3CC=C(c4ccccc4)CC3)c2c1 [Compound 31] |  |  |  | 0 | 44 | 59.9 ± 5.5 | IC50 ([3]; Table 4, IC50 ± SEM): 14000 ± 4000 nM
Oc1ccc2c(CCCCN3CC=C(c4ccccc4)CC3)c[nH]c2c1 [Compound 33] |  |  |  | 3 | 61 | 267 ± 1 | 
Cc1ccc(C#Cc2ccc(CN(CCC(C)(C)C)c3ccc(O)c(C(=O)O)c3)cc2)cc1 [Compound 4] | 14 | 100 | 100 |  |  |  | IC50 ([1]; IC50 ± SEM): 102000 ± 15000 nM
CCCCc1ccc(C#Cc2ccc(CN(CC3CC3)c3ccc(O)c(C(=O)O)c3)cc2)cc1 [Compound 5] | 0 | 16 | 2 |  |  |  | IC50 [2]: 2400 ± 200 nM; IC50 [3]: 1100 ± 100 nM; IC50 ([1]; IC50 ± SEM): 7000 ± 3000 nM
Nc1c2c(nc3ccccc13)CCCC2 [Tacrine, reference compound] |  |  |  |  |  |  | hBChE RA (%) ([2]; residual activity at 10 µM, Table 1): 0%
C[C@H](NCc1ccc(OCc2cccc(F)c2)cc1)C(N)=O [Safinamide, reference compound] |  |  |  |  |  |  | hMAO-B RA [%] [4]: 0%
O=C(O)c1cccc2[nH]cc(CCCCN3CC=C(c4ccccc4)CC3)c12 [Compound 32] |  |  |  | 49 | 71 | 14500 ± 2200 | 
N#Cc1ccc2[nH]cc(CCCCN3CC=C(c4ccc5c(c4)OCC5)CC3)c2c1 [Compound 35] |  |  |  | 31 | 59 | 2900 ± 100 | 
CCCCc1ccc(C#Cc2ccc(CN(C(=O)CC(C)(C)C)c3ccc(F)c(C(=O)O)c3)cc2)cc1 [Compound 1] | 0 | 100 | 2 |  |  |  | IC50 [3]: 1200 ± 50 nM; MurA IC50 (µM) ([1]; IC50 ± SEM): No clear dose-dependency
CC(C)(C)CCN(Cc1ccc(C#Cc2ccc(F)cc2)cc1)C(=O)c1ccc(C(=O)O)cc1 [Compound 3] | 58 | 100 | 100 |  |  |  | 
